Read-outs that look alike come from different tables or passages of the source.
Key:
Assay type in all cases: cell-based
[1] = molecular target: T1, BRD4-NUT (Homo sapiens, UniProt O60885+Q86Y26); assay: BRD4-NUT protein degradation by western blotting in RPMI2650 cells (24 h treatment)
T1 construct: endogenous in cells; host or cells: RPMI2650
Procedure: (§1) The synthesized compounds were prepared with a 10 mM or 50 mM raw material solution dissolved in DMSO [dimethyl sulfoxide], and were diluted sequentially and treated. [RPMI2650] and [SNU2972] were cultivated under specific conditions.
(§2) To evaluate the resolution of PROTAC for BRD4 expressed in cells, cells were dispensed in a concentration of 5 X 10^5 cells/well in a 6-well plate, and the sample was treated for 24 hours. […] Protein expression was normalized based on the expression value of β or GAPDH, and protein expression in each sample was measured as % based on 100% of samples treated with 0.1% DMSO vehicle. Protein expression was quantified using Image J program. Change in protein expression volume by compound treatment (DC50: concentration of compounds where 50% protein expression inhibition is achieved) was calculated using the GraphicPad Prism 8.0 software.

[2] = molecular target: BRD4 (Homo sapiens, UniProt O60885); assay: BRD4 protein degradation by western blotting in RPMI2650 cells (24 h treatment); parameters: To evaluate the resolution of PROTAC for BRD4 expressed in cells; endogenous in cells; host or cells: RPMI2650
Procedure: as §1, §2

[3] = test system: RPMI2650; assay: Cancer cell antiproliferative activity / cell viability in RPMI2650 cells (72 h treatment)
Procedure: The human breast cancer cell line [MDA-MB-231] was cultured in RPMI medium with the addition of 10% fetal bovine serum, penicillin [100U/ml], and streptomycin [[…]]. The synthesized compounds were prepared with a 10 mM or 50 mM raw material solution dissolved in DMSO [dimethyl sulfoxide], and were diluted sequentially and treated. [RPMI2650] and [SNU2972] were cultivated under specific conditions.
To observe cell growth inhibition, cells were dispensed in a concentration of 5,000 cells/well in a 96-well plate, and samples prepared at various concentrations were treated for 72 hours. The IC50 value (the concentration of the compound achieving 50% cytostaticism) is the average value of the results of three independent measurements.

[4] = read-out: BRD4-NUT (DC50), RPMI2650
[5] = read-out: BR04 (DC50), RPMI2650
[6] = Homo sapiens, RPMI-2650, RPMI2650, read-out: BRD4 (IC50)
[7] = RPM12650, read-out: BRD4-NUT (DC50)
[8] = Homo sapiens, RPMI-2650, RPM12650, read-out: Cell Viatility (IC50)
[9] = RPM12650, read-out: BRD4 (DC50)

| DC50 [1, 4] [nM] | Compound | DC50 [2, 5] [nM] | IC50 [3, 6] [nM] | DC50 ([1]; RPMI2650, read-out: BRD4-NUT (DC50)) [nM] | DC50 [1, 7] [nM] | IC50 [3, 8] [nM] | DC50 [2, 9] [nM] | IC50 ([3]; RPM12650, read-out: Cell Viatility (IC50)) [nM] |
| --- | --- | --- | --- | --- | --- | --- | --- | --- |
| > 1000 | Cc1sc2c(c1C)C(c1ccc(Cl)cc1)=N[C@@H](CC(=O)Nc1ccc(OCCCC#Cc3ccc4c(=O)n(C5CCC(=O)NC5=O)ncc4c3)cc1)c1nnc(C)n1-2 (stereo partly drawn) [ICT-0001409, 2-[(9S)-7-(4-chlorophenyl)-4,5,13-trimethyl-3-thia-1,8,11,12-tetraazatricyclo[8.3.0.0^2,^6]trideca-2(6),4,7,10,12-pentaene-9-yl]-N-[4-({5-[2-(2,6-dioxopiperidin-3-yl)-1-oxo-1,2-dihydroptalazine-6-yl]pent-4-phosphorus-1-yl}oxy)phenyl]acetamide] | > 1000 | – | – | – | – | – | – |
| > 1000 | Cc1sc2c(c1C)C(c1ccc(Cl)cc1)=N[C@@H](CC(=O)Nc1ccc(OCCCCCc3ccc4c(=O)n(C5CCC(=O)NC5=O)ncc4c3)cc1)c1nnc(C)n1-2 (stereo partly drawn) [ICT-0001411, 2-[(9S)-7-(4-chlorophenyl)-4,5,13-trimethyl-3-thia-1,8,11,12-tetraazatricyclo[8.3.0.0^2,^6]trideca-2(6),4,7,10,12-pentaene-9-yl]-N-[4-({5-[2-(2,6-dioxopiperidin-3-yl)-1-oxo-1,2-dihydroptalazine-6-yl]pentyl}oxy)phenyl)acetamide] | > 1000 | – | – | – | – | – | – |
| – | Cc1sc2c(c1C)C(c1ccc(Cl)cc1)=N[C@@H](CC(=O)Nc1ccc(CN3CCN(c4ccc(NC5CCC(=O)NC5=O)cc4F)CC3)cc1)c1nnc(C)n1-2 (stereo partly drawn) [ICT-0001441, 2-[(9S)-7-(4-chlorophenyl)-4,5,13-trimethyl-3-thia-1,8,11,12-tetraazatricyclo[8.3.0.0^2,^6]trideca-2(6),4,7,10,12-pentaene-9-yl]-N-{4-[(4-{4-[(2,6-dioxopiperidine-3-yl)amino]-2-fluorophenyl}piperazine-1-yl)methyl]phenyl}acetamide] | < 100 | < 100 | < 100 | – | – | – | – |
| – | CC[C@@H]1c2nnc(C)n2-c2cnc(Nc3ccc(C(=O)NCCCC#Cc4ccc5c(=O)n(C6CCC(=O)NC6=O)ncc5c4)cc3OC)nc2N1CC1CCCCC1 (stereo partly drawn) [ICT-0001515, 4-(((R)-5-(cyclohexylmethyl)-4-ethyl-1-methyl-4,5-dihydro-[1,2,4]triazolo[4,3-f]pteridine-7-yl)amino)-N-(5-(2-(2,6-dioxopiperidin-3-yl)-1-oxo-1,2-dihydroptalazine-6-yl)pent-4-phosphorus-1-yl)-3-methoxybenzamide] | – | – | – | > 1000 | > 1000 | > 1000 | – |
| – | CC[C@@H]1c2nnc(C)n2-c2cnc(Nc3ccc(C(=O)N4CCN(CC5CCN(c6ccc7c(=O)n(C8CCC(=O)NC8=O)nc(C)c7c6)CC5)CC4)cc3OC)nc2N1CC1CCCCC1 (stereo partly drawn) [ICT-0001516, 3-(6-(4-((4-(4-(((R)-5-(cyclohexylmethyl)-4-ethyl-1-methyl-4,5-dihydro-[1,2,4]triazolo[4,3-f]pteridine-7-yl)amino)3-methoxybenzoyl)piperazine-1-il)methyl)piperidine-1-yl)4-methyl-1-oxopthalazine-2(1H)-yl)piperidine-2,6-dione] | – | – | – | < 100 | > 1000 | < 100 | – |
| – | CC[C@@H]1c2nnc(C)n2-c2cnc(Nc3ccc(C(=O)N4CCN(c5ccc(NC6CCC(=O)NC6=O)cc5F)CC4)cc3OC)nc2N1CC1CCCCC1 (stereo partly shown) [ICT-0001517] | – | – | – | < 100 | < 100 | < 100 | – |
| – | CC[C@@H]1c2nnc(C)n2-c2cnc(Nc3ccc(C(=O)N4CCN(CC5CCN(c6ccc(NC7CCC(=O)NC7=O)cc6F)CC5)CC4)cc3OC)nc2N1CC1CCCCC1 (stereo partly drawn) [ICT-0001518, 3-((4-(4-((4-(4-(((R)-5-(cyclohexylmethyl)-4-ethyl-1-methyl-4,5-dihydro-[1,2,4]triazolo[4,3-f]pteridine-7-yl)amino)3-methoxybenzoyl)piperazine-1-il)methyl)piperidine-1-yl)-3-fluorophenyl)amino)piperidine-2,6-dione] | – | – | – | < 100 | 100 to 1000 | < 100 | – |
| – | CC[C@@H]1c2nnc(C)n2-c2cnc(Nc3ccc(C(=O)NC4CCN(CCCC#Cc5ccc6c(=O)n(C7CCC(=O)NC7=O)ncc6c5)CC4)cc3OC)nc2N1CC1CCCCC1 (stereo partly drawn) [ICT-0001534, 4-(((R)-5-(cyclohexylmethyl)-4-ethyl-1-methyl-4,5-dihydro-[1,2,4]triazolo[4,3-f]pteridine-7-yl)amino)N-(1-(5-(2-(2,6-dioxopiperidin-3-yl)1-oxo-1,2-dihydroptalazine-6-yl)pent-4-phosphorus-1-yl)piperidine-4-yl)-3-methoxybenzamide] | – | – | – | > 1000 | > 1000 | > 1000 | – |
| – | CC[C@@H]1c2nnc(C)n2-c2cnc(Nc3ccc(C(=O)N4CCO[C@@H](CN5CCN(c6ccc7c(=O)n(C8CCC(=O)NC8=O)nc(C)c7c6)CC5)C4)cc3OC)nc2N1CC1CCCCC1 (stereo partly drawn) [ICT-0001548, 3-(6-(4-(((S)-4-(4-(((R)-5-(cyclohexylmethyl)-4-ethyl-1-methyl-4,5-dihydro-[1,2,4]triazolo[4,3-f]pteridine-7-yl)amino)3-methoxybenzoyl)morpholine-2-il)methyl)piperazine-1-yl)4-methyl-1-oxopthalazine-2(1H)-yl)piperidine-2,6-dione] | – | – | – | < 100 | – | < 100 | > 1000 |
| – | CC[C@@H]1c2nnc(C)n2-c2cnc(Nc3ccc(C(=O)NCCOCCOCCOCCNc4cccc5cnn(C6CCC(=O)NC6=O)c(=O)c45)cc3OC)nc2N1CC1CCCCC1 (stereo partly shown) [ICT-0001549] | – | – | – | > 1000 | 100 to 1000 | < 100 | – |
| – | CC[C@@H]1c2nnc(C)n2-c2cnc(Nc3ccc(C(=O)N4CCC(CN5CCN(c6ccc7c(=O)n(C8CCC(=O)NC8=O)nc(C)c7c6)CC5)CC4)cc3OC)nc2N1CC1CCCCC1 (stereo partly drawn) [ICT-0001553, 3-(6-(4-(1-(4-(((R)-5-(cyclohexylmethyl)-4-ethyl-1-methyl-4,5-dihydro-[1,2,4]triazolo[4,3-f]pteridine-7-yl)amino)3-methoxybenzoyl)piperidine-4-yl)piperazine-1-yl)4-methyl-1-oxopthalazine-2(1H)-yl)piperidine-2,6-dione] | – | – | – | 100 to 1000 | > 1000 | < 100 | – |
| – | CC[C@H]1c2nnc(C)n2-c2cnc(Nc3ccc(C(=O)N4CCN(c5ccc(NC6CCC(=O)N(C)C6=O)cc5F)CC4)c(OC)c3)nc2N1CC1CCCCC1 (stereo partly drawn) [ICT-0001554, 3-({4-[4-(4-{[(4S)-5-(cyclohexylmethyl)-4-ethyl-1-methyl-4H,5H-[1,2,4]triazolo[4,3-f]pteridine-7-yl]amino}-2-methoxybenzoyl)piperazine-1-yl]-3-fluorophenyl}amino)-1-methylpiperidine-2,6-dione] | – | – | – | > 1000 | > 1000 | > 1000 | – |

| Compound | DC50 [1, 4] [nM] | DC50 [2, 5] [nM] | IC50 [3, 6] [nM] | DC50 ([1]; RPMI2650, read-out: BRD4-NUT (DC50)) [nM] | DC50 [1, 7] [nM] | IC50 [3, 8] [nM] | DC50 [2, 9] [nM] | IC50 ([3]; RPM12650, read-out: Cell Viatility (IC50)) [nM] |
| --- | --- | --- | --- | --- | --- | --- | --- | --- |
| Cc1sc2c(c1C)C(c1ccc(Cl)cc1)=N[C@@H](CC(=O)Nc1ccc(OC[C@@H]3CN(c4ccc5c(=O)n(C6CCC(=O)NC6=O)nc(C)c5c4)CCO3)cc1)c1nnc(C)n1-2 (stereo partly drawn) [ICT-0001430, 2-[(9S)-7-(4-chlorophenyl)-4,5,13-trimethyl-3-thia-1,8,11,12-tetraazatricyclo[8.3.0.0^2,^6]trideca-2(6),4,7,10,12-pentaene-9-yl]-N-(4-{[(2S)-4-[2-(2,6-dioxopiperidin-3-yl)-4-methyl-1-oxo-1,2-dihydroptalazine-6-yl]morpholine-2-yl]methoxy}phenyl)acetamide] | < 100 | < 100 | 100 to 1000 | – | – | – | – | – |

From patent EP4640686A1, “DEGRADER FOR DEGRADING BRD PROTEIN AND PHARMACEUTICAL COMPOSITION CONTAINING SAME” (Innocure Therapeutics, Inc., priority 2022, dated 2024)
